Results on ten compounds are retold here after ChEMBL document CHEMBL6115026, “Synthesis and Biological Evaluation of Peripheral 5HT2B Antagonists for Liver Fibrosis” (J Med Chem, 2025).

By inhibition is commonly meant the change of the read-out against control, counted positive when it falls. For orientation: IC50 means the midpoint of a concentration-inhibition curve. For orientation: Ki means the equilibrium dissociation constant of an inhibitor or competing ligand from its target.

Data set [1] addresses T1, 5-hydroxytryptamine receptor 2B (Homo sapiens, UniProt P41595). In words: Antagonist activity at 5HT2B (unknown origin) expressed in FRT cells co-expressing ANO1 and YFP assessed as inhibition of 5HT-induced increase in iodide influx at 1 uM preincubated with compound for 10 mins followed by 5-HT addition and measured after 8 sec by YFP fluorescence quenching analysis relative to control. Format: cell-based. The note with it: time 608.0 sec.

The target of data set [2] is T1, 5-hydroxytryptamine receptor 2B. Briefly: Antagonist activity at 5HT2B (unknown origin) expressed in FRT cells co-expressing ANO1 and YFP assessed as inhibition of 5HT-induced increase in iodide influx preincubated with compound for 10 mins followed by 5-HT addition and measured after 8 sec by YFP fluorescence quenching analysis. Format: cell-based.
Data set [3] can be described thus: Drug concentration in male mouse plasma at 5 mg/kg, ip measured after 0.5 hrs. Format: ADME, organism-based.
Data set [4] can be described thus: Drug concentration in male mouse brain at 5 mg/kg, ip measured after 0.5 hrs. To be noted: read-out: Ct. The format is ADME, organism-based.
The nature of data set [5]: Ratio of drug concentration in male mouse brain to plasma at 5 mg/kg, ip measured after 0.5 hrs. Format: ADME, organism-based. The note with it: brain and plasma, read-out: BPR.
The target in data set [6] is T1, 5-hydroxytryptamine receptor 2B. In words: Binding affinity to 5-HT2B (unknown origin).
Data set [7] has the same target. Briefly: Binding affinity to 5-HT2B (unknown origin) assessed as inhibition constant by receptor binding assay.

T1 sequence (P41595 whole entry): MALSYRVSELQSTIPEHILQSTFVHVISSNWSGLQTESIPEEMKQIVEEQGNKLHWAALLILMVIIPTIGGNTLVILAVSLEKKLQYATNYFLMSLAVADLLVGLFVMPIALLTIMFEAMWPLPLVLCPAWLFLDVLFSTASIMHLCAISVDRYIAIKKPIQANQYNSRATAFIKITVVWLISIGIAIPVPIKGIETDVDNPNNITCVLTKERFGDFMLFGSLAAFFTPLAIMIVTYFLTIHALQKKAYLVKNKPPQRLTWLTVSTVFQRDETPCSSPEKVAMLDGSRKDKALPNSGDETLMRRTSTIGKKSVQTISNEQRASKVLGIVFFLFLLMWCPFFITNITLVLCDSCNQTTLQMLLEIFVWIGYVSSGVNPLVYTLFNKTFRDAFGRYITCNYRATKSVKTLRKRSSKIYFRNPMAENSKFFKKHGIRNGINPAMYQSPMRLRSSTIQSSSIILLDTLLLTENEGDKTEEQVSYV

As to `COc1ccc(S(=O)(=O)N[C@H]2CCN(C(=O)[C@@H](N)CCC(=O)O)C2)cc1C(=O)Nc1ccccc1Cl`, in data set [1] (filed as antagonist), the inhibition was found to be 94.5%. Also, in data set [2], the IC50 was 7.22 nM. As to `COc1ccc(S(=O)(=O)N[C@H]2CCOC2)cc1C(=O)Nc1ccccc1Cl`, the concentration at 0.5 h in data set [3] came to 99.2 ng/mL; in data set [4], 51.7 ng/g. Further, the Kp at 0.5 h in data set [5] turned out to be 0.53. Further, the inhibition in data set [1] (filed as antagonist) is 98.8%. Also, the IC50 in data set [2] worked out at 1.8 nM. Compound `O=C(c1ccc(-c2ccccc2)cc1)N1CCC(c2cc3ccccc3[nH]2)CC1` had an IC50 in data set [6] of 2.4 nM.

As to `COc1ccc(S(=O)(=O)NC2CCN(C(=O)OC(C)(C)C)CC2)cc1C(=O)Nc1ccccc1Cl`, the inhibition in data set [1] (filed as antagonist) turned out to be 47.1%. As to `COc1ccc(S(=O)(=O)N[C@H]2CCN(C(=O)C[C@H](N)C(=O)O)C2)cc1C(=O)Nc1ccccc1Cl`, the inhibition in data set [1] (filed as antagonist) is 103%. In addition, the IC50 in data set [2] was 10 nM. On to `COc1ccc(S(=O)(=O)N[C@H]2CCOC2)cc1C(=O)Nc1ccccc1N1CCN(C(=O)OC(C)(C)C)CC1`, for which, in data set [1], the inhibition turned out to be 1.64%. For `NCC(=O)NCCN1CCN(CCCN2c3ccccc3Sc3ccc(C(F)(F)F)cc32)CC1`, in data set [7], the Ki came out at 5.2 nM.

With `COc1ccc(S(=O)(=O)N[C@H]2CCOC2)cc1C(=O)Nc1ccccc1N1CCNCC1`, in data set [1], the inhibition stood at 15%. Turning to `COc1ccc(S(=O)(=O)N[C@H]2CCOC2)cc1C(=O)Nc1ccccc1N`, in data set [1], the inhibition came out at 32.8%. As for `COc1ccc(S(=O)(=O)N[C@H]2CCNC2)cc1C(=O)Nc1ccccc1Cl`, in data set [1] (filed as antagonist), the inhibition was found to be 93.7%.
